Broadly, the IC50 is the concentration that gives 50% inhibition. In general, ED50 refers to the dose at which the effect has come halfway, by size or by number of responders.

This is an account of results in ChEMBL document CHEMBL3217563, “Second generation analogues of RKA182: synthetic tetraoxanes with outstanding in vitro and in vivo antimalarial activities” (Medchemcomm, 2011).

The test system of series [1] is Plasmodium falciparum. As to the kind of experiment: Antiplasmodial activity against Plasmodium falciparum 3D7 infected in human erythrocytes assessed as [3H]hypoxanthine incorporation after 48 hrs by betaplate liquid scintillation counting analysis. The series is classed as functional, organism-based.
The test system of series [2] is Plasmodium falciparum. As to the kind of experiment: Antiplasmodial activity against chloroquine-resistant Plasmodium falciparum K1 infected in human erythrocytes assessed as [3H]hypoxanthine incorporation after 48 hrs by betaplate liquid scintillation counting analysis. The series is classed as functional, organism-based.
Series [3] can be described thus: Metabolic stability in human liver microsomes assessed as compound remaining at 10 ug/ml after 10 mins by LC/MS/MS analysis relative to control. The following applies: read-out: Stability. It is filed as ADME. (Liver microsomes are vesicles of endoplasmic reticulum, rich in cytochrome P450 enzymes.)
Series [4] is described as follows: Metabolic stability in human liver microsomes assessed as compound remaining at 10 ug/ml after 30 mins by LC/MS/MS analysis relative to control. The series is classed as ADME. The following applies: read-out: Stability.
Series [5] can be described thus: Metabolic stability in human liver microsomes assessed as compound remaining at 10 ug/ml after 60 mins by LC/MS/MS analysis relative to control. It is filed as ADME. Conditions: read-out: Stability.
The subject of the next series is Plasmodium berghei. As to the kind of experiment: Antimalarial activity against Plasmodium berghei ANKA infected in mouse assessed as suppression of parasitaemia at 30 mg/kg, po administered for 3 days measured on day 4 relative to control. It is filed as functional.
The test system of a further series is Mus musculus. As to the kind of experiment: Antimalarial activity against Plasmodium berghei ANKA infected in po dosed mouse assessed as suppression of parasitaemia administered for 3 days measured on day 4 relative to control. The series is classed as functional.
For series [6], the system named is Plasmodium falciparum. As to the kind of experiment: Selectivity ratio of IC50 for Plasmodium falciparum 3D7 infected in human erythrocytes to IC50 for Plasmodium falciparum K1 infected in human erythrocytes. The series is classed as functional.

Take `CN1CCN(C2CCN(C(=O)CC3CCC4(CC3)OOC3(OO4)C4CC5CC(C4)CC3C5)CC2)CC1` (stereo not drawn): the IC50 is 0.819 nM in the series on Plasmodium falciparum [1] (Plasmodium falciparum, 3D7) and 1.12 nM in the series with Plasmodium falciparum [2]. Further, in series [3], the remaining at 10 min, 10 ug/ml came out at 62.9%. Further, the remaining at 0.5 h, 10 ug/ml in series [4] stood at 40.6%. The remaining at 1 h, 10 ug/ml in series [5] was determined as 39.5%.

Turning to `C1CN(C2CCC3(CC2)OOC2(OO3)C3CC4CC(C3)CC2C4)CCO1` (stereo not drawn), the IC50 in the series on Plasmodium falciparum [1] (Plasmodium falciparum, 3D7) came out at 0.4 nM; with Plasmodium falciparum [2], 0.4 nM.

For the compound `C1CCN(C2CCC3(CC2)OOC2(OO3)C3CC4CC(C3)CC2C4)C1` (stereo not drawn), the IC50 in the series with Plasmodium falciparum [1] (Plasmodium falciparum, 3D7) was determined as 0.7 nM; in the series on Plasmodium falciparum [2], 1 nM. In addition, the Activity in the series on Plasmodium berghei came out at 99.8%.

As for `FC1(F)CCC(NC2CCC3(CC2)OOC2(OO3)C3CC4CC(C3)CC2C4)CC1` (stereo not drawn), the IC50 is 0.4 nM with Plasmodium falciparum [1] (Plasmodium falciparum, 3D7) and 0.9 nM in the series with Plasmodium falciparum [2].

Turning to `C1CC(NC2CCC3(CC2)OOC2(OO3)C3CC4CC(C3)CC2C4)CCO1` (stereo not drawn), the half-inhibitory concentration (IC50) with Plasmodium falciparum [1] (Plasmodium falciparum, 3D7) is 0.7 nM; in the series on Plasmodium falciparum [2], 0.4 nM. In addition, the median effective dose (ED50) in the series with Mus musculus was 2.8 mg/kg. Further, the ED90 in the series with Mus musculus is 18 mg/kg.

For `CN1CCC(NC2CCC3(CC2)OOC2(OO3)C3CC4CC(C3)CC2C4)CC1` (stereo not drawn), the IC50 worked out at 0.4 nM in the series with Plasmodium falciparum [1] (Plasmodium falciparum, 3D7) and 1.1 nM in the series with Plasmodium falciparum [2]. In the series on Plasmodium berghei, the Activity worked out at 99.2%.

Consider `O=S1(=O)CC[N+]([O-])(C2CCC3(CC2)OOC2(OO3)C3CC4CC(C3)CC2C4)CC1` (stereo not drawn), for which the half-maximal inhibitory concentration (IC50) in the series on Plasmodium falciparum [1] (Plasmodium falciparum, 3D7) was 3.7 nM; in the series on Plasmodium falciparum [2] it was 2.5 nM.

Take `C1CCN(C2CCC3(CC2)OOC2(OO3)C3CC4CC(C3)CC2C4)CC1` (stereo not drawn): the IC50 in the series on Plasmodium falciparum [1] (Plasmodium falciparum, 3D7) was found to be 0.6 nM; with Plasmodium falciparum [2] it was 0.4 nM.

Consider `FC1(F)CCN(C2CCC3(CC2)OOC2(OO3)C3CC4CC(C3)CC2C4)CC1` (stereo not drawn), for which the IC50 with Plasmodium falciparum [1] (Plasmodium falciparum, 3D7) was 0.6 nM. For the same compound, the IC50 with Plasmodium falciparum [2] is 1.3 nM. For the same compound, the Activity in the series on Plasmodium berghei is recorded as 99.8%. In the series with Mus musculus, the 50% effective dose (ED50) turned out to be 9.4 mg/kg and the ED90 was determined as 34 mg/kg.

With `C1CCN(C2CCN(C3CCC4(CC3)OOC3(OO4)C4CC5CC(C4)CC3C5)CC2)CC1` (stereo not drawn), the IC50 turned out to be 2.4 nM in the series on Plasmodium falciparum [1] (Plasmodium falciparum, 3D7) and 0.2 nM with Plasmodium falciparum [2]. In the series with Plasmodium falciparum [6], the “Ratio IC50” value is given as 25. Besides, the Activity in the series with Plasmodium berghei is 99.7%.

As for `C1CCC(NC2CCC3(CC2)OOC2(OO3)C3CC4CC(C3)CC2C4)CC1` (stereo not drawn), the IC50 with Plasmodium falciparum [1] (Plasmodium falciparum, 3D7) stood at 0.4 nM; with Plasmodium falciparum [2] it was 0.2 nM. Also, in the series on Plasmodium falciparum [6], the “Ratio IC50” value came out at 25.

Regarding `NC1CCN(C2CCC3(CC2)OOC2(OO3)C3CC4CC(C3)CC2C4)CC1` (stereo not drawn), the IC50 in the series with Plasmodium falciparum [1] and in the series with Plasmodium falciparum [2] was 1.2 nM in each case. Moreover, the remaining at 10 min, 10 ug/ml in series [3] was 86.7%. Besides, the remaining at 0.5 h, 10 ug/ml in series [4] was 73.6%. For the same compound, the remaining at 1 h, 10 ug/ml in series [5] stood at 57.4%.

Take `C1C2CC3CC1CC(C2)C31OOC2(CCC(NC3CC3)CC2)OO1` (stereo not drawn): the IC50 with Plasmodium falciparum [1] (Plasmodium falciparum, 3D7) stood at 1.5 nM. In the series with Plasmodium berghei, the Activity is listed as 99.7%.

For the compound `CC(C)(C)NC1CCC2(CC1)OOC1(OO2)C2CC3CC(C2)CC1C3` (stereo not drawn), in the series with Plasmodium falciparum [1] (Plasmodium falciparum, 3D7), the IC50 came out at 1.3 nM. In addition, in the series on Plasmodium berghei, the Activity was determined as 98.7%.

As for `O=C1CN(C2CCC3(CC2)OOC2(OO3)C3CC4CC(C3)CC2C4)CCN1` (stereo not drawn), the IC50 in the series with Plasmodium falciparum [1] (Plasmodium falciparum, 3D7) was 3.5 nM. Moreover, in the series on Plasmodium berghei, the Activity was determined as 98.8%.

As for `CC(C)(C)OC(=O)NC1CCN(C2CCC3(CC2)OOC2(OO3)C3CC4CC(C3)CC2C4)CC1` (stereo not drawn), the IC50 in the series with Plasmodium falciparum [1] (Plasmodium falciparum, 3D7) worked out at 1 nM.

As for `C1CC(NC2CCC3(CC2)OOC2(OO3)C3CC4CC(C3)CC2C4)CCO1.Cl` (stereo not drawn), the half-inhibitory concentration (IC50) in the series with Plasmodium falciparum [1] is 1 nM. Besides, in the series on Mus musculus, the ED50 amounted to 2.3 mg/kg and the ED90 worked out at 11 mg/kg.

`Cc1ccc(S(=O)(=O)O)cc1.NC1CCN(C2CCC3(CC2)OOC2(OO3)C3CC4CC(C3)CC2C4)CC1` (stereo not drawn): the concentration for half-maximal inhibition (IC50) in the series with Plasmodium falciparum [1] is 2.5 nM. The Activity in the series on Plasmodium berghei is on record as 99.9%. Moreover, in the series on Mus musculus, the ED50 stood at 3.7 mg/kg and the ED90 came to 10 mg/kg.

With `C[C@H]1[C@H](OC(=O)CCC(=O)O)O[C@@H]2O[C@@]3(C)CC[C@H]4[C@H](C)CC[C@@H]1[C@@]24OO3` [ARTESUNATE], the IC50 in the series on Plasmodium falciparum [2] was 4.9 nM. The Activity with Plasmodium berghei is recorded as 99.6%. Moreover, in the series with Mus musculus, the ED50 was 2.8 mg/kg and the ED90 came to 18 mg/kg.
